Columns and labels:
[1] = target: T1, P2X purinoceptor 7 (Homo sapiens, UniProt Q99572); test: Antagonist activity at human recombinant P2X7 receptor expressed in 1321N1 cells assessed as inhibition of BzATP-induced calcium mobilization incubated for 30 mins measured after 180 seconds by calcium-4 dye based FLIPR assay; type: cell-based
T1 sequence (Q99572 whole entry): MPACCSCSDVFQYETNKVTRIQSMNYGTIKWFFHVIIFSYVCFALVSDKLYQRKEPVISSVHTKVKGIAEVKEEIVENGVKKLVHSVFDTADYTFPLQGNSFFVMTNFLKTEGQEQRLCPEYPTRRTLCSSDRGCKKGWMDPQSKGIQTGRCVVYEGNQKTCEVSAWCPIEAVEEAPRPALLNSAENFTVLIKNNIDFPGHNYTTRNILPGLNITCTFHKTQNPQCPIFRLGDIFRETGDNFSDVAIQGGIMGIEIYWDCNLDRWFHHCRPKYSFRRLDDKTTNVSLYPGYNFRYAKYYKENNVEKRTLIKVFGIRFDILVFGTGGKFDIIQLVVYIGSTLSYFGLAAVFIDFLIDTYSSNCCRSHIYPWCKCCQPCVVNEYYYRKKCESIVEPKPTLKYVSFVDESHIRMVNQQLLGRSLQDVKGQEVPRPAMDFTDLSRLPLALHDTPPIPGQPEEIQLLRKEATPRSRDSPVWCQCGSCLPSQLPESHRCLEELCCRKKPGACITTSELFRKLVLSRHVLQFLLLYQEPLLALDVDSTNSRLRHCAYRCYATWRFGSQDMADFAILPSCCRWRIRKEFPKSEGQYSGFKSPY

[2] = Fraction unbound in human plasma; type: ADME, cell-free
[3] = target: T2, P2X purinoceptor 7 (Rattus norvegicus, UniProt Q64663); test: Antagonist activity at rat P2X7 receptor expressed in 1321N1 cells assessed as inhibition of BzATP-induced calcium mobilization incubated for 30 mins measured after 180 seconds by calcium-4 dye based FLIPR assay; type: cell-based
T2 sequence (Q64663 whole entry): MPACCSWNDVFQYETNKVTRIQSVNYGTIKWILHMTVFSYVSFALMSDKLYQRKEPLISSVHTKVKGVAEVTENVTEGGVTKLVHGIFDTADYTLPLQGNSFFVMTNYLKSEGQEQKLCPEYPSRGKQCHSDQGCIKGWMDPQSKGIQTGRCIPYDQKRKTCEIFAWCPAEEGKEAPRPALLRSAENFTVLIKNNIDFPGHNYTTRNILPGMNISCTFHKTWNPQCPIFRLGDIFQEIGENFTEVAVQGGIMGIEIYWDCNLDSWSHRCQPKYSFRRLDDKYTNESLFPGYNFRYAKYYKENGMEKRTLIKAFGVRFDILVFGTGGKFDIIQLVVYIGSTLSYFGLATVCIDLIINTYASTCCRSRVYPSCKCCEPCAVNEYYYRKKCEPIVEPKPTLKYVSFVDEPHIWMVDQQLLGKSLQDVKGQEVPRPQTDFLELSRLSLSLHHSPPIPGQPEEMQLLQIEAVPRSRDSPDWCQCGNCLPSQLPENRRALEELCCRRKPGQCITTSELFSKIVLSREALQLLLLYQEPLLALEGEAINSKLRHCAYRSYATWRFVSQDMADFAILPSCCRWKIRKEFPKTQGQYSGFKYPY

[4] = Fraction unbound in rat plasma; type: ADME, cell-free
[5] = target: Cytochrome P450 3A4 (Homo sapiens, UniProt P08684); test: Inhibition of CYP3A4 (unknown origin); type: ADME
[6] = tested on: Rattus norvegicus; test: Ex vivo inhibition of P2X7 in po dosed rat measured after 1 to 2 hrs by ARG assay; type: functional, organism-based
[7] = Cmax in dog at 2.5 mg/kg, po; type: ADME, organism-based, Canis lupus familiaris; design: dose 2.5 mg/kg, route oral; details: in vivo
[8] = Oral bioavailability in dog at 2.5 mg/kg; type: ADME, organism-based, Canis lupus familiaris; details: in vivo
[9] = target: T1, P2X purinoceptor 7; test: Antagonist activity at human P2X7 receptor expressed in HEK293 cells assessed as inhibition of BzATP-induced calcium mobilization monitored for 5 mins followed by stimulation with BzATP measured after 3 mins by Fluo-8 NW dye based tetra FLIPR assay; type: cell-based
[10] = Efflux ratio of apparent permeability from basolateral to apical over apical to basolateral side in human Caco2 cells at 10 uM after 40 to 60 mins by LC-MS/MS analysis; type: ADME, cell-based; details: Caco-2
[11] = Oral bioavailability in rat at 10 mg/kg; type: ADME, organism-based; details: in vivo
[12] = Ratio of drug level in brain to plasma in rat at 10 mg/kg, po; type: ADME, organism-based; details: read-out: BPR
[13] = tested on: Rattus norvegicus; test: Ex vivo receptor occupancy at P2X7 receptor in rat at 10 mg/kg, po; type: functional
[14] = target: T1, P2X purinoceptor 7; test: Antagonist activity at human recombinant P2X7 receptor expressed in HEK293 cells assessed as inhibition of ATP-induced calcium mobilization incubated for 90 mins in presence of ATP by YO-PRO-1 dye based tetra FLIPR assay; type: cell-based
[15] = target: T1, P2X purinoceptor 7; test: Antagonist activity at human P2X7 receptor expressed in HEK293 cells assessed as inhibition of BzATP-induced calcium mobilization incubated for 30 mins by Fluo-4 NW dye based tetra FLIPR assay; type: cell-based
[16] = target: T1, P2X purinoceptor 7; test: Antagonist activity at human P2X7 receptor expressed in THP1 cells assessed as inhibition of BzATP-induced IL-1beta release preincubated for 20 mins followed by stimulation with BzATP for 30 mins by sandwich ELISA; type: cell-based
[17] = target: T1, P2X purinoceptor 7; test: Antagonist activity at human P2X7 receptor expressed in HEK293 cells assessed as inhibition of BzATP-induced pore formation incubated for 20 mins followed by stimulation with BzATP for 30 mins by YO-PRO dye based fluorescence plate reader method; type: cell-based

Chain of Cytochrome P450 3A4 (P08684 whole entry): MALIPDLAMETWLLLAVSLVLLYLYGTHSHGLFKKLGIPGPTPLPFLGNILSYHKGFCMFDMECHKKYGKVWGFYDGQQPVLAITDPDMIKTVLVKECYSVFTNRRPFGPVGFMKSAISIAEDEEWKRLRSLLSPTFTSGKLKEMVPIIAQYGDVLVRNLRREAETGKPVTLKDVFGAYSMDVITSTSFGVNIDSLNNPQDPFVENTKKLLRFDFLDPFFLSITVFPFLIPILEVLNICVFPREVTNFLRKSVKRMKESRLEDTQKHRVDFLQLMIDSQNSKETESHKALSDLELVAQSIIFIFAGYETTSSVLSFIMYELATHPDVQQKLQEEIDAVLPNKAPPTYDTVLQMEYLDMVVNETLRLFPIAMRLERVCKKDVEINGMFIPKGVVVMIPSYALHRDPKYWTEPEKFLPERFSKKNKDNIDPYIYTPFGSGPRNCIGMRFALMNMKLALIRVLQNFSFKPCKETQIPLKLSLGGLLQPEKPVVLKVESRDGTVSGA

| SMILES | IC50 [1] [µM] | IC50 [3] [µM] | efflux ratio at 10 µM [10] | other results |
| --- | --- | --- | --- | --- |
| Cc1nc2c(c(-c3ccccc3)n1)CCN(C(=O)c1cccc(C(F)(F)F)c1Cl)C2 | 0.24 |  |  | fraction unbound [2]: 0.032 |
| Cc1nc2c(c(-c3ccn[nH]3)n1)CCN(C(=O)c1cccc(C(F)(F)F)c1Cl)C2 | 0.0085 | 1.14 |  | fraction unbound [4]: 0.074 |
| Cc1nc2c(c(-c3ccn[nH]3)n1)C[C@@H](C)N(C(=O)c1cccc(C(F)(F)F)c1Cl)C2 |  |  |  | IC50 [5]: 3.3 µM; EC50 [6]: 0.008 µM; Cmax [7]: 571 nM; bioavailability [8]: 35% |
| Cc1nc2c(c(-c3ccn[nH]3)n1)C[C@@H](C)N(C(=O)c1ccc(Cl)cc1F)C2 | 0.019 |  |  | IC50 [5]: > 10 µM; EC50 [6]: 0.1 µM |
| O=C(NCC(CC1(C(F)F)CC1)c1ccc(C2CC2)nc1)c1cccc(Cl)c1Cl (stereo not drawn) |  |  |  | IC50 [9]: 0.00079 µM |
| O=C(c1cccc(C(F)(F)F)c1Cl)N1CCn2c(nnc2C(F)(F)F)[C@H]1c1ccccc1 | 0.0087 | 0.042 | 0.75 | bioavailability [11]: 78%; Kp [12]: 0.5; Occ [13]: >80% |
| Cc1nnc2n1CCN(C(=O)c1cccc(C(F)(F)F)c1Cl)[C@@H]2c1ccccc1 | 0.0027 | 0.027 | 5.1 |  |
| CCCCc1nnc2n1CCN(C(=O)c1cccc(C(F)(F)F)c1Cl)[C@@H]2c1ccccc1 | 0.0085 | 0.02 | 1.22 |  |
| O=C(NCC1(c2ccc(Cl)nc2)CCCCC1)c1c(Cl)ccc2[nH]ccc12 |  |  |  | IC50 [14]: 0.0032 µM |
| Cc1ncc(C(CNC(=O)c2cc(-c3ncc(F)cn3)ccc2Cl)N2CCCC(F)(F)C2)s1 (stereo not drawn) |  |  |  | IC50 [15]: 0.022 µM |
| C[C@H]1CC[C@@](O)(CNC(=O)c2cc(C3CCOC3)n3cccc(Cl)c23)CC1 (stereo partly drawn) |  |  |  | IC50 [16]: < 0.01 µM; IC50 [17]: < 0.01 µM |
| CCc1nnc2n1CCN(C(=O)c1cccc(C(F)(F)F)c1Cl)[C@@H]2c1ccccc1 | 0.0024 |  | 3.24 |  |
| O=C(NCC(c1cnc(C(F)(F)F)nc1)N1CCOCC1)c1c(Cl)ccc2[nH]ccc12 (stereo not drawn) |  |  |  | IC50 [14]: 0.0039 µM |
| CN(C)C(=O)CCNc1ccc2c(C(=O)NCC3CCC(F)(F)CC3)c(Cl)ccc2n1 |  |  |  | IC50 [16]: < 0.01 µM; IC50 [17]: < 0.01 µM |
| CC(C)(C)c1nnc2n1CCN(C(=O)c1cccc(C(F)(F)F)c1Cl)[C@@H]2c1ccccc1 | 0.011 |  | 2 |  |
| O=C(NCC1(c2ccc(Cl)nc2)CCCCC1)C1CCCc2[nH]ccc21 (stereo not drawn) |  |  |  | IC50 [14]: 0.0034 µM |

Continued, in another order:

| IC50 [1] [µM] | IC50 [3] [µM] | efflux ratio at 10 µM [10] | SMILES | other results |
| --- | --- | --- | --- | --- |
| 0.0045 | 0.064 | 4.5 | O=C(c1cccc(C(F)(F)F)c1Cl)N1CCn2cnnc2[C@H]1c1ccccc1 |  |
| 0.0069 | 0.017 | 3.33 | O=C(c1cccc(C(F)(F)F)c1Cl)N1CCn2c(C3CC3)nnc2[C@H]1c1ccccc1 |  |

From ChEMBL document CHEMBL4425156, “The evolution of P2X7 antagonists with a focus on CNS indications” (Bioorg Med Chem Lett, 2016)
